Patent publication US5929063A, “Mercapto and seleno derivatives as inhibitors of nitric oxide synthase” (priority 1995, dated 1999)
Read-outs that look alike come from different tables or passages of the source.

Legend:
bNOS = target: T1, bNOS (Rattus norvegicus, UniProt P29476); assay: bNOS activity in homogenates of whole rat brains; assay type: biochemical; conditions: bNOS (Table 2); read-out: EC50 for inhibition of bNOS activity in tissue homogenates
T1 construct: bNOS activity was measured using similar methods in homogenates of whole rat brains; from tissue; host or cells: homogenate of whole rat brains

[1] = test system: constitutive and inducible NOS isoforms; conditions: background literature; cited from earlier work
iNOS [2] = target: T2, iNOS (Rattus norvegicus, UniProt Q06518); assay: Inhibition of iNOS activity in tissue homogenates (Table 2); assay type: biochemical; parameters: bNOS in tissue homogenates; from tissue; host or cells: tissue homogenate; conditions: iNOS (Table 2)
J774 macrophages = assay: Nitrite production by immunostimulated J774 macrophages (endotoxin 24 h, Griess); assay type: cell-based, mouse; conditions: Mus musculus, read-out: EC50 for the inhibition of nitrite production by stimulated J774 macrophages
Description: This example illustrates the effect of selected mercapto derivatives on endotoxin-induced nitrite formation in J774.2 macrophages and on IL-1 gamma-interferon induced nitrite formation in cultured rat arctic smooth muscle cells. J774 macrophage cell lines were obtained from the American Type Culture Collection (ATCC) and were grown using standard methods in Dulbecco's Modified Eagle Medium (DMEM) supplemented with 10% fetal bovine serum, glutamine, penicillin (10,000 U/l) and streptomycin (10,000 U/l). Rat aortic smooth muscle cells (RASM) from Wistar rats were isolated by enzymatic dissociation using standard methods. The cells were positively identified as smooth muscle by indirect immunofluorescent staining for a-actin, using mouse anti-α-actin antibody and anti-mouse IgG fluorescein isothiocyanate (FITC) conjugate. RASM cells were grown in T-75 tissue culture flasks in 50% F12 nutrient medium and 50% Dulbecco's Modified Eagle Medium supplemented with 10% fetal bovine serum, glutamine, penicillin (10,000 U/l) and streptomycin (10,000 U/l). Cells were grown in 96-well plates for measure of nitrite production and cell viability. J774 macrophages were treated with endotoxin (10 μg/ml) for 24 hours; smooth muscle cells were treated with IL-1 (100 U/ml) and gamma-interferon (50 U/ml) for 48 hours.
Concentration of nitrite, the degradation product of NO in the culture medium, was determined by mixing equal volumes of medium with the Griess reagent (1% sulfanilamide/0.1% naphthylethylenediamine dihydrochloride/2.5% H3 PO4). The mixture was incubated for 10 minutes at room temperature to form the chromophore, then optical densities (OD) were determined at 550 nm (OD550). NaNO2 was used as the standard. Spectrophotometric measurements were performed in a dual-wavelength spectrophotometer.

ecNOS = target: T3, ecNOS (Bos taurus, UniProt P29473); assay: ecNOS activity from intimal scrapings of fresh bovine aortae (conversion of [3H]-L-arginine to [3H]-L-citrulline); assay type: biochemical
T3 construct: the intimal surface of fresh bovine aortae was scraped and homogenized; from tissue; host or cells: homogenate of intimal scrapings of fresh bovine aortae
Description: The intimal surface of fresh bovine aortae was scraped in the presence of homogenation buffer composed of 50 mM Tris-HCl, 0.1 mM ethylenediamine tetraacetic acid (EDTA) and 0.1 mM ethyleneglycol bis (beta-aminoethyl ether) (EGTA). Conversion of [^3 H]-L-arginine to [^3 H]-L-citrulline was measured in the homogenates as follows: cell homogenate (50 μl) was incubated in the presence of [^3 H]-L-arginine (10 μM, 5 kBq/tube), NADPH (2 mM), calmodulin (30 nM), tetrahydrobiopterin (5 μM) and calcium (2 mM) for 20 minutes at 37° C. in N-2-hydroxethyl piperazine-N-2-ethane sulfonic acid (HEPES) buffer (pH 7.5). Reactions were stopped by dilution with 1 ml of ice cold HEPES buffer (pH 5.5) containing EGTA (2 mM) and EDTA (2 mM). Reaction mixtures were applied to Dowex 50W (Na^+ form) columns and the eluted [^3 H]-L-citrulline activity was measured by scintillation counting. bNOS activity was measured using similar methods in homogenates of whole rat brains.
For a preparation rich in ecNOS, the intimal surface of fresh bovine aortae was scraped and homogenized. The homogenization buffer was composed of 50 mM tris-HCL, 0.1 mM EDTA, 0.1 mM EGTA and 1 mM phenylmethylsulfonyl chloride (pH 7.4). Cell suspensions were homogenized in the homogenization buffer on ice using a Tissue Tearor 985-370 homogenizer (BioSpec Products, Racine, Wis.). Conversion of [^3 H]-L-arginine to [^3 H]-L-citrulline was measured in the homogenates as described in Example 3 above.

iNOS [3] = target: T2, iNOS; assay: iNOS activity in lung homogenates from rats treated with bacterial endotoxin; assay type: biochemical; parameters: Lungs were obtained from rats which had been treated with bacterial endotoxin; from tissue; host or cells: lung homogenate from endotoxin-treated rats
Description: This Example illustrates the effect of selected mercapto and seleno derivatives on iNOS activity in lung homogenates prepared from rats treated with endotoxin. […] The homogenization buffer was composed of 50 mM tris-HCL, 0.1 mM EDTA, 0.1 mM EGTA and 1 mM phenylmethylsulfonyl chloride (pH 7.4). Cell suspensions were homogenized in the homogenization buffer on ice using a Tissue Tearor 985-370 homogenizer (BioSpec Products, Racine, Wis.).

J774.2 macrophages = assay: Nitrite production in immunostimulated J774.2 macrophages (E.coli LPS + murine gamma-interferon, 24 h); assay type: cell-based, mouse; conditions: Mus musculus
Description: This example illustrates the effect of selected mercapto and seleno derivatives on nitrite production in J774.2 immunostimulated macrophages. The J774.2 mouse macrophage cell line was obtained from the ATCC and was cultured in DMEM with 4×10^-3 M L-glutamine and 10% fetal calf serum. Cells were cultured in 96-well plates with 200 μl culture medium until they reached 60-80% confluence. To induce INOS, fresh culture medium containing E.coli LPS (10 μg/ml) and murine gamma-interferon (IFN)(50 U/ml) was added. Nitrite accumulation in the cell culture medium in the absence or presence of various inhibitors was measured after 24 hours. Nitrite production, an indicator of NO synthesis, was measured in the supernatant of J774.2 macrophages by the Greiss reaction as described in Example 1 above.
This Example illustrates the effect of selected seleno derivatives on endotoxin-induced nitrite formation in J774.2 macrophages. The mouse macrophage cell line J774.2 obtained from the ATCC was cultured in DMEM with 4×10^-3 M L-glutamine and 10% fetal calf serum. Cells were cultured in 96-well plates with 200 μl culture medium until they reached 60-80% confluence. To induce iNOS, fresh culture medium containing E.coli LPS (10 μg/ml) and murine gamma-interferon (IFN)(50 U/ml) were added. Nitrite accumulation in the cell culture medium in the absence or presence of various inhibitors was measured after 24 hours. There was no detectable nitrite production by the J774.2 macrophages in the absence of immunostimulation. However, in the presence of IFN and LPS, nitrite concentration of the medium increased to 17±2 μM in the absence of inhibitor.

[4] = Mean arterial blood pressure in normal anesthetized rats; assay type: in vivo, Male Wistar rats; conditions: i.v. or i.p.
Description: An increase in blood pressure by agents that inhibit NOS is a good measure of their inhibitory effect on the constitutive, endothelial NOS (ecNOS).
In this particular example, Male Wistar rats were anesthetized with thiopentone sodium (120 mg/kg, i.p). The trachea was cannulated to facilitate respiration and the rectal temperature was maintained at 37° C. by means of a rectal probe connected to a homeothermic blanket. The right carotid artery was cannulated and connected to a pressure transducer for the measurement of phasic and mean arterial blood pressure and heart rate. The left and right femoral veins were cannulated for the administration of drugs.

T1 sequence (P29476 whole entry): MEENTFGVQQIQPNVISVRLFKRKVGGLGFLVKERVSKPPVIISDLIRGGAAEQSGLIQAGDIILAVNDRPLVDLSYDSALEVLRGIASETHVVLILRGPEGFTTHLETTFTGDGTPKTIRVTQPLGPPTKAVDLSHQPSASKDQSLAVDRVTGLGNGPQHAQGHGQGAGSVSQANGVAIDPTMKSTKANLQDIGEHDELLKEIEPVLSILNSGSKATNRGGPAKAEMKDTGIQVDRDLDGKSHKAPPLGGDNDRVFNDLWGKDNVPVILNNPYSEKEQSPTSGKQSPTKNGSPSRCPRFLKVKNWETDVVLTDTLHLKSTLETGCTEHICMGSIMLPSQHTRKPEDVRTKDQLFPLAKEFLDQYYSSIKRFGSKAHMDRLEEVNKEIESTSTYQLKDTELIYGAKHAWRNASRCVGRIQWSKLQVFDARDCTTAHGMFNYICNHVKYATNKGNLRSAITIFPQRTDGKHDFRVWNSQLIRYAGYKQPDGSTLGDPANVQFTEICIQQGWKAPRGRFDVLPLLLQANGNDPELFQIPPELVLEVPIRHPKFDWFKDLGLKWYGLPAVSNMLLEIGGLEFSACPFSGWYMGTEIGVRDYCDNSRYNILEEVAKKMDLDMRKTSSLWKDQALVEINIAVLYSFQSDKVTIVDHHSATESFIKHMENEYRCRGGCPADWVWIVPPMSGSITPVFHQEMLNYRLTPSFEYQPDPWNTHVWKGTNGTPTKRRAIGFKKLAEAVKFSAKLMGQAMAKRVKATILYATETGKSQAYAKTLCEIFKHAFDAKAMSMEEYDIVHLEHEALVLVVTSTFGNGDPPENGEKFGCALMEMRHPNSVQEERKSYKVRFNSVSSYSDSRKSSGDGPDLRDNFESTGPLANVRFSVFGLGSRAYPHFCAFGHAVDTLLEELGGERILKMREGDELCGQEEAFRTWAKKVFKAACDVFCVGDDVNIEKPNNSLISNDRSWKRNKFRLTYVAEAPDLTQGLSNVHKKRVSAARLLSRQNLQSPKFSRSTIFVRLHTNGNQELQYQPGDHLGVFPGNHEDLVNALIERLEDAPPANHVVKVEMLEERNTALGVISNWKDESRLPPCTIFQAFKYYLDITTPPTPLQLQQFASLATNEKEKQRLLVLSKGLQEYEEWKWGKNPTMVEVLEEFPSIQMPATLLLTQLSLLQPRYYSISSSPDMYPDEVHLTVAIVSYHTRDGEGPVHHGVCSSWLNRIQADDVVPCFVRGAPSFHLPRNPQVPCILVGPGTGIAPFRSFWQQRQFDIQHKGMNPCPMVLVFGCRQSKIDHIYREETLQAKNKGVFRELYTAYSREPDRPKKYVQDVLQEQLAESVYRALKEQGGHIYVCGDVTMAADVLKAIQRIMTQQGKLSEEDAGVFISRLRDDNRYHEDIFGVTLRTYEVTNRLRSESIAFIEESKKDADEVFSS

N=C(N)NN [Aminoguanidine, reference compound]
EC50 (bNOS): 220 µM
NOS inhibition / isoform selectivity, in words [1]: selectively inhibit the inducible isoform of nitric oxide synthase
EC50 (iNOS [2]): 80 µM
EC50 (J774 macrophages; J774, 24 h): 120 µM
EC50 (ecNOS; ecNOS (Table 2), read-out: EC50 for inhibition of ecNOS activity in tissue homogenates): 2600 µM

COC(=O)[C@@H](N)CCCNC(=N)N[N+](=O)[O-] [L-NAME, NG-nitro-L-arginine methyl ester, reference compound]
NOS inhibition / isoform selectivity, in words [1]: inhibit both the constitutive and the inducible NOS isoforms to a similar extent
EC50 (ecNOS; n=6, bovine aorta, read-out: EC50, dose dependent inhibition of ecNOS activity): 2 µM

CNC(=N)NCCC[C@H](N)C(=O)O [L-NMA, N^G -Methyl-L-arginine, reference compound]
iNOS ACTIVITY (%) (iNOS [3]; inhibitor concentration -3.000 log M): 18.000%
iNOS ACTIVITY (%) (iNOS [3]; inhibitor concentration -4.000 log M): 40.00%
iNOS ACTIVITY (%) (iNOS [3]; inhibitor concentration -5.000 log M): 100.000%
iNOS ACTIVITY (%) (iNOS [3]; inhibitor concentration -6.000 log M): 100.000%
iNOS ACTIVITY (%) (iNOS [3]; inhibitor concentration -7.000 log M): 100.000%
inhibition of iNOS activity, in words (iNOS [3]; lung homogenates, rats treated with endotoxin): somewhat similar in their inhibitory effect on INOS activity
activity at 1000 µM (J774.2 macrophages; J774.2, 24 h, inhibitor concentration -3.000 log M (Table 3), read-out: NITRITE (% OF CONTROL)): 12.6%
activity at 100 µM (J774.2 macrophages; J774.2, 24 h, inhibitor concentration -4.000 log M (Table 3), read-out: NITRITE (% OF CONTROL)): 45%
activity at 10 µM (J774.2 macrophages; J774.2, 24 h, inhibitor concentration -5.000 log M (Table 3), read-out: NITRITE (% OF CONTROL)): 73.5%
activity at 1 µM (J774.2 macrophages; J774.2, 24 h, inhibitor concentration -6.000 log M (Table 3), read-out: NITRITE (% OF CONTROL)): 95%
EC50 (J774.2 macrophages; J774.2, IFN and LPS, Example 9, read-out: EC50, inhibition of nitrite production): 90 µM
EC50 (iNOS [2]): 17 µM
EC50 (J774 macrophages; J774, endotoxin 10 μg/ml, 24 h (Table 1)): 159 µM
mean arterial blood pressure (MAP) response [4]: pronounced and dose-dependent pressor response
